Where two headings read alike, the source gives them in different places.
Legend:
[1] = system: P. berghei ookinete development; conditions: for % inhibition, Replicate A / % inhibition, Replicate B: primary screen at 1 μM
[2] = system: 3D7-strain P. falciparum asexual parasites; assay: P. falciparum asexual growth inhibition assay (Pf GIA); assay type: cell-based, Plasmodium falciparum; conditions: dose response confirmation; read-out: Pf asexual growth inhibition assays IC50
Method in brief: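 Read-out was lactate dehydrogenase activity measured by absorbance at 650 nm after freezing and thawing, against 50 μM chloroquine and DMSO controls. Before that, asexual 3D7 cultures (0.25% parasitemia, 2% hematocrit) had 72 h dose-response compound exposure at 37°C in 5% CO2/5% O2/90% N2; three independent replicates averaged.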

[3] = system: HepG2 cells; assay: HepG2 cytotoxicity assay; conditions: for Pb ODA (this manuscript) HepG2 cytoxicity: HepG2 cytotoxicity listed with the Pb ODA data set (this manuscript); for IC50: read-out: HepG2 cytotoxicity assay IC50, dose response confirmation
Method in brief: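 Here viability after a 48 h compound incubation (37°C, humidified 5% CO2) is measured by fluorescence and expressed as percent inhibition, with doxorubicin at 50 μM and DMSO as the bounding controls.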

[4] = read-out: Pb ODA (this manuscript) IC50, P. berghei ookinete development assay, this manuscript
[5] = read-out: Pb Ookinete development assay IC50, dose response confirmation
[6] = read-out: Pb ODA IC50, this manuscript
[7] = HepG2 values of the three screens unified
[8] = unified HepG2 value across the three screens

| Structure (SMILES) | Is compound selective in assay? Pb ODA active? [1] | % inhibition, Replicate A [1] [%] | % inhibition, Replicate B [1] [%] | IC50 [1, 4] [µM] | IC50 [1, 5] [µM] | IC50 [2] [µM] | Pb ODA (this manuscript) HepG2 cytoxicity [3] [µM] | IC50 [3] [µM] | Is compound selective in assay? Pb ODA active? ([1]; 1: YES, 0: NO) | IC50 [1, 6] [µM] | HepG2 cytoxicity (Pb ODA, this manuscript) [3] [µM] | Unified cytotox [3, 7] [µM] | Unified cytotox [3, 8] [µM] |
| --- | --- | --- | --- | --- | --- | --- | --- | --- | --- | --- | --- | --- | --- |
| Cc1[nH]c(C)c(-c2ccc(C(=O)c3ccc(Cl)cc3)cc2)c(=O)c1Cl [TCMDC-137413] | 1 (key: 1: YES; 0: NO) | 122.85 | 129.69 | 0.17 | 0.171 | 0.117 | 100.00 | 100 | – | – | – | – | – |
| Br.COc1ccc(CC(C)CON2C(N)=NC(N)=NC2(C)C)cc1 (centres unmarked) [TCMDC-131722] | 0 (key: 1: YES; 0: NO) | 50.32 | 49.29 | 4.86 | 4.86 | < 0.0002 | 0.001 | 0.001 | – | – | – | – | – |
| CCc1cc2c3c(N)nc(N)nc3ccc2n1CC [TCMDC-137851] | – | 53.59 | 40.48 | – | 0.986 | 0.00253 | – | 0.0224 | 0 (0: NO) | 0.99 | 0.0224 | 0.0224 | – |
| Cc1[nH]c(C)c(-c2ccc(OCc3cccc(C(F)(F)F)c3)nc2)c(=O)c1Br [TCMDC-135656] | – | 92.61 | 102.80 | – | 0.106 | 0.041 | – | 8.61 | 1 (1: YES) | 0.11 | 8.61 | 8.61 | – |
| Cc1c2ccncc2c(C)c2c1[nH]c1ccccc12 [TCMDC-125546] | – | 41.57 | 50.63 | – | 5.26 | 1.19 | – | 15.1 | 0 (0: NO) | 5.27 | – | – | 15.14 |
| COc1ccc2nc(-c3cc(-c4ccc(NC(=O)C(C)C)cc4)cnc3N)[nH]c2c1 [TCMDC-135322] | – | 29.63 | 78.93 | – | 0.423 | 0.277 | – | 8.61 | 1 (1: YES) | 0.42 | – | – | 8.61 |
| CCCCc1ccc(-c2ccc3[nH]c(C)c(Br)c(=O)c3c2)cc1 [TCMDC-135463] | – | 56.53 | 70.28 | – | 3 | 0.077 | – | 10 | 0 (0: NO) | 2.99 | – | – | 10.00 |
| Cc1[nH]c(C)c(-c2ccc(-c3ccccc3F)nc2)c(=O)c1Br [TCMDC-135926] | – | 85.66 | 106.09 | – | 0.461 | 0.222 | – | 100 | 1 (1: YES) | 0.46 | – | 100.00 | – |
| Cc1cc2nc(/N=C(\N)NC(=O)NC3CCCCC3)nc(C)c2cc1C [TCMDC-124528] | 1 (key: 1: YES; 0: NO) | 53.37 | 63.38 | 0.85 | 0.846 | 0.396 | 8.51 | 8.51 | – | – | – | – | – |
| O=C(NC1CCN(CC2(c3ccccc3F)CCCC2)CC1)c1ccn[nH]1 [TCMDC-124837] | 1 (key: 1: YES; 0: NO) | 77.91 | 70.40 | 1.49 | 1.49 | 0.456 | 41.69 | 41.7 | – | – | – | – | – |
| Cc1ccc(Nc2nc3cc(N(C)c4ccnc(Nc5cccc(CCS(C)(=O)=O)c5)n4)ccc3n2C)cc1.O=C(O)C(F)(F)F [TCMDC-138853] | – | 113.72 | 29.45 | – | 1.88 | 0.000433 | – | 3.31 | 0 (0: NO) | 1.88 | – | – | 3.31 |
| Cc1[nH]c(C)c(-c2ccc(Oc3ccc(OC(F)(F)F)cc3)cc2)c(=O)c1Br [TCMDC-138826] | 0 (key: 1: YES; 0: NO) | 67.69 | 78.09 | 7.89 | 7.89 | 0.274 | 75.86 | 75.9 | – | – | – | – | – |
| COc1ccc(Oc2ccc(-c3c(C)[nH]c(C)c(Cl)c3=O)cc2)cc1 [TCMDC-136134] | – | 121.16 | 100.57 | – | 0.422 | 0.0074 | – | 100 | 1 (1: YES) | 0.42 | – | 100.00 | – |
| Cc1[nH]c(C)c(-c2ccc(-c3ccccc3C(F)(F)F)nc2)c(=O)c1Br [TCMDC-135881] | – | 87.53 | 97.69 | – | 0.973 | 0.191 | – | 100 | 1 (1: YES) | 0.97 | – | 100.00 | – |
| CCc1c(C)nc(-n2nc(C)cc2NC(=O)C(CC)c2ccccc2)[nH]c1=O (centres unmarked) [TCMDC-124935] | 0 (key: 1: YES; 0: NO) | 47.36 | 55.92 | 8.71 | 8.71 | 0.558 | 0.95 | 0.95 | – | – | – | – | – |
| Br.Cc1ccc(OCCCON2C(=N)N=C(N)NC2(C)C)cc1C [TCMDC-131650] | 0 (key: 1: YES; 0: NO) | 43.37 | 66.90 | 4.96 | 4.96 | < 0.0002 | 0.001 | 0.001 | – | – | – | – | – |
| O=C(Nc1ccc(OC2CCN(Cc3ccc(F)cc3)C2)c(Cl)c1)c1cccs1.O=C(O)C(F)(F)F (centres unmarked) [TCMDC-133757] | – | 48.09 | 57.60 | – | 1.91 | 0.187 | – | 25.1 | 1 (1: YES) | 1.91 | – | – | 25.12 |
| Cl.O=c1cc(NCCCNCc2sc(Br)c(Br)c2Br)[nH]c2ccccc12 [TCMDC-139647] | – | 55.06 | 82.69 | – | 1.96 | 0.977 | – | 34.7 | 1 (1: YES) | 1.96 | – | – | 34.67 |
| COc1cc(F)c2ncc(Cl)c(CCN3CCC(NCc4ccc5c(n4)NC(=O)CO5)CC3)c2c1.Cl [TCMDC-135621] | 1 (key: 1: YES; 0: NO) | 69.33 | 64.08 | – | 1.27 | 2.59 | 27.23 | 27.2 | – | – | – | – | – |
| Cc1[nH]c(C)c(-c2ccc(-c3ccc(C(F)F)cc3)nc2)c(=O)c1Cl [TCMDC-132329] | – | 72.54 | 35.56 | – | 7.79 | 1.44 | – | 100 | 1 (1: YES) | 7.8 | – | 100.00 | – |
| CCCCCCCc1c(C)[nH]c2ccccc2c1=O [TCMDC-137425] | 1 (key: 1: YES; 0: NO) | 71.66 | 86.67 | 0.39 | 0.388 | 0.222 | 100.00 | 100 | – | – | – | – | – |
| Cc1nc(C)c(-c2ccc(Oc3ccc(Cl)c(Cl)c3)cc2)c(O)c1Cl [TCMDC-137396] | 1 (key: 1: YES; 0: NO) | 89.72 | 133.12 | 0.12 | 0.124 | 0.096 | 16.98 | 17 | – | – | – | – | – |
| CCCCCCCc1c(C)nc2cccc(OC)c2c1O [TCMDC-138014] | 0 (key: 1: YES; 0: NO) | 63.12 | 36.77 | 1.15 | 1.15 | 1.99 | 5.50 | 5.5 | – | – | – | – | – |
| CC1CN(Cc2cccc(F)c2)CCN1c1ccc(NC(=O)c2cccs2)cc1.O=C(O)C(F)(F)F (centres unmarked) [TCMDC-135009] | 1 (key: 1: YES; 0: NO) | 59.80 | 66.69 | – | 0.42 | 0.242 | 120.23 | 120 | – | – | – | – | – |
| COc1cc(F)c2ncc(Cl)c(CCN3CCC(NCc4ccc5c(c4)NC(=O)CS5)CC3)c2c1.Cl [TCMDC-135620] | – | 131.37 | 63.52 | – | 0.467 | 0.015 | – | 10.6 | 1 (1: YES) | 0.47 | – | – | 10.59 |
